Results reported in US7495088B1, “Modified nucleotide compounds” (Enzo Life Sciences, Inc., priority 1989, dated 2009).

Columns and labels:
[1] = system: Bovine spleen phosphodiesterase
[2] = biological target: T1, Spleen phosphodiesterase (5'->3' exonuclease) (Bos taurus) (UniProt Q2KJJ8); assay: cleavage_in_vitro
T1 sequence: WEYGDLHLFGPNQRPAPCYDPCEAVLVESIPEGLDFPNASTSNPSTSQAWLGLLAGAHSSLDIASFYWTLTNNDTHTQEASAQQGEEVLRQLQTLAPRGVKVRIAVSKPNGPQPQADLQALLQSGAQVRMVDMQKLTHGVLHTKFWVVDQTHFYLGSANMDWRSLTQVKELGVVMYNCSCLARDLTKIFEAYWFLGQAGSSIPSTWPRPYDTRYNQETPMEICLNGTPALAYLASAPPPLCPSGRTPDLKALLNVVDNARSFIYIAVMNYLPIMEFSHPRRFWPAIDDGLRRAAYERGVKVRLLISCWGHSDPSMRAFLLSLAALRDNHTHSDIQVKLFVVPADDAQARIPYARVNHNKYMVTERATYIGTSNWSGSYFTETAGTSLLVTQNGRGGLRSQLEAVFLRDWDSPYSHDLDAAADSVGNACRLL

E. coli RNase H = E. coli RNase H (Escherichia coli, UniProt P0A7Y4); conditions: 2 units RNase H, 60 minutes 37° C.; for ability to form RNase H substrate, 14-mer binding site: 32P-labeled runoff transcripts of pSP65-ALA-D
Chain of E. coli RNase H (P0A7Y4 whole entry): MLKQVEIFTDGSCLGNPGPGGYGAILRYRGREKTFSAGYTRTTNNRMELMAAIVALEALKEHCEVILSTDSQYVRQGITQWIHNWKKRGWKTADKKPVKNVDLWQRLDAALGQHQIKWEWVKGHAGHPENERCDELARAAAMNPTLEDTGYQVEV

[3] = system: Worthington venom exonuclease
[4] = system: Snake venom phosphodiesterase; conditions: pH 9
Bovine spleen DNase II = biological target: T2, Bovine spleen DNase II (Bos taurus, UniProt P56541)
T2 sequence (P56541 20-365): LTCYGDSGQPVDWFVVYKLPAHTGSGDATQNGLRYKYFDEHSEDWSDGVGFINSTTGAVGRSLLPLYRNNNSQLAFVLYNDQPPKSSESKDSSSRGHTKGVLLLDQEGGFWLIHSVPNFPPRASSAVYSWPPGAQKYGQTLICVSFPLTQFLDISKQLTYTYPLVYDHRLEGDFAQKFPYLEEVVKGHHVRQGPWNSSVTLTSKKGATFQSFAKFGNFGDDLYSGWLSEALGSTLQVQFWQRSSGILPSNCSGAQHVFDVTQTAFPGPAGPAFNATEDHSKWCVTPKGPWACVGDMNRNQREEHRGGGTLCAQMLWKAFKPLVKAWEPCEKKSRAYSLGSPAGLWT

DNase I (pancreas) = DNase I (pancreas) (Bos taurus, UniProt P00639 P00639:23-282); assay: cleavage_in_vitro; Mg, Ca, 37 C; conditions: tags: Bethesda Research Laboratories
Chain of DNase I (pancreas) (P00639 23-282, one chain of several): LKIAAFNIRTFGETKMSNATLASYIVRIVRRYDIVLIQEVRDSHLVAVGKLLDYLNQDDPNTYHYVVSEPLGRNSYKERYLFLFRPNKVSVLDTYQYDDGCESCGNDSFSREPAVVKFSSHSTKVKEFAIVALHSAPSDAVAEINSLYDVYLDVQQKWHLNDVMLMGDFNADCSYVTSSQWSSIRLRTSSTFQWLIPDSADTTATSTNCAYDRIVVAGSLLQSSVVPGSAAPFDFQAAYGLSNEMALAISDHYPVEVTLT

[5] = biological target: Snake venom phosphodiesterase (3'->5' exonuclease) (Crotalus adamanteus, UniProt J3SEZ3 J3SEZ3:24-851); assay: cleavage_in_vitro; Tris pH 9.0, 37 C; conditions: tags: Sigma
Chain of Snake venom phosphodiesterase (3'->5' exonuclease) (J3SEZ3 24-851, one chain of several): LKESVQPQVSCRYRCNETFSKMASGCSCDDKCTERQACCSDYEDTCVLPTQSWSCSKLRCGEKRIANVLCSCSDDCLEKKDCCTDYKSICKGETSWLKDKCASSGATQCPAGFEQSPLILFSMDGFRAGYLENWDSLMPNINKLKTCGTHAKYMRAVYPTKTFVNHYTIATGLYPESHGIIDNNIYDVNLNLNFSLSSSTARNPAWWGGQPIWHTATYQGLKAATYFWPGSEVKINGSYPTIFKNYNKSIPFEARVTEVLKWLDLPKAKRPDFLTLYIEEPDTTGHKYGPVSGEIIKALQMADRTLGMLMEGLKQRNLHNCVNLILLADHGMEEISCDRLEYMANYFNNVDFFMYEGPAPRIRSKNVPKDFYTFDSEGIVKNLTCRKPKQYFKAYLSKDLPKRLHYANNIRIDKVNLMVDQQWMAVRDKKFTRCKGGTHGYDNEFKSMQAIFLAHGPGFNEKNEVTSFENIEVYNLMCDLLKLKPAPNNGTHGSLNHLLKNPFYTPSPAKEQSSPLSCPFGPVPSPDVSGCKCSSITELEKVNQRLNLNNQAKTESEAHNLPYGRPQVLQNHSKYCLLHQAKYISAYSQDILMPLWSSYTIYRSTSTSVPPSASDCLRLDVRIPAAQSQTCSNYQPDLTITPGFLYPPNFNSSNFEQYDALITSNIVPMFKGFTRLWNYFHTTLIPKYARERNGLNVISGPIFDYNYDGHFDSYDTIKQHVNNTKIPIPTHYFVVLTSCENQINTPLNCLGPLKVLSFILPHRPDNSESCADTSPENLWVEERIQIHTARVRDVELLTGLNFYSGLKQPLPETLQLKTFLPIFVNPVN

DNase II (spleen) = biological target: T3, DNase II (spleen) (Bos taurus, UniProt P56541 P56541:20-365); assay: cleavage_in_vitro; pH 4.6, 25 C; conditions: tags: Bethesda Research Laboratories
T3 sequence: T2 sequence (P56541 20-365)

[6] = biological target: Venom phosphodiesterase (3'->5' exonuclease) (UniProt J3SEZ3 J3SEZ3:24-851); assay: cleavage_in_vitro; Worthington venom exonuclease; conditions: tags: Worthington
Chain of Venom phosphodiesterase (3'->5' exonuclease) (J3SEZ3 24-851, one chain of several): as above

For “ATGCAGCTAAGTCA (chemistry not given here) [Oligomer 14-C-4]”, the “observation after spleen exonuclease digestion (electrophoretic mobility of the hybrid)” value (from here on “observation”) [1] was “apparently shortened”.

With ATGCAGCTAAGTCA [14-P-4] the activity (relative half-life) ([2]; half-time about 30 min, citrate pH 6.0, 37 C) was 1.

With “TGACTTAGCTGCAT [14-C-3] (chemistry not given here) [Oligomer 14-C-3]” the “ability to form RNase H substrate, 14-mer binding site” value (“ability … 14-mer binding site” below) (E. coli RNase H) was “formed RNase H substrates”.

For “TGACTTAGCTGCAT [14-Me^6b-3] (chemistry not given here)”, the “3′-exonucleolytic cleavage in tissue culture” value (“3′-exonucleolytic cleavage” for short) (B95-8 cells) was “absence of cleavage” and the “Tissue Culture Stabilities, Relative Half-Life, +FCS. B95-8” value (B95-8 cells) was 30.

For ATGCAGCTAAGTCA [14-G-4], the activity (relative half-life) ([2]; 3' methylphosphonate linkage at G3,G6,G11, >>200, apparently shortened) was > 200.

With CTGGGGCTGCAT [12-Me^5a-1] the “ability to form RNase H substrate / cleavage of RNA, 12-mer binding site” value (E. coli RNase H; NcoI runoff transcript) was “permitted cleavage of most of the RNA”.

TGACTTAGCTGCAT [14-P-3] was tested, and the activity (relative half-life) ([2]; half-time about 30 min, citrate pH 6.0, 5 mM EDTA, 37 C) was 1.

In the case of “ATGCAGCTAAGTCA (chemistry not given here) [14-C/T-4]”, the “increase in half-life as compared to 14-C-4” value [3] is reported as “two-fold”.

TGACTTAGCTGCAT [14-Me6a-3] was tested, and the activity (relative half-life) ([2]; 3' methylphosphonate linkage at positions 2,4,6,8,10,12, >>200) was > 200.

“ATGCAGCTAAGTCA [14-T-4] (chemistry not given here) [Oligomer 14-T-4]” was tested, and the “observation” value [1] was “apparently shortened”.

In the case of ATGCAGCTAAGTCA [14-T-4], the activity (relative half-life) ([2]; 3' methylphosphonate linkage at T2,T8,T12, >>200, apparently shortened) is reported as > 200.

With “ATGCAGCTAAGTCA [14-G-4] (chemistry not given here) [Oligomer 14-G-4]” the “observation” value [1] was “apparently shortened”.

In the case of “TGACTTAGCTGCAT [14-P-3] (chemistry not given here) [Oligomer 14-P-3, reference compound]”, the “ability … 14-mer binding site” value (E. coli RNase H) is reported as “formed RNase H substrates” and the “Exonuclease Relative Half-Life, Venom (3′->5′-)” value [4] is reported as 1.

“ATGCAGCTAAGTCA [14-P-4] (chemistry not given here) [Oligomer 14-P-4]” was tested, and the “Exonuclease Relative Half-Life, Venom (3′->5′-)” value [4] was 1.

“TGACTTAGCTGCAT [14-A-3] (chemistry not given here) [Oligomer 14-A-3]” was tested, and the “ability … 14-mer binding site” value (E. coli RNase H) was “formed RNase H substrates”.

“TGACTTAGCTGCAT [14-Me^5a-3] (chemistry not given here)” was tested, and the “3′-exonucleolytic cleavage” value (B95-8 cells) was “single stepwise cleavage”, the “Tissue Culture Stabilities, Relative Half-Life, +FCS. B95-8” value (B95-8 cells) was 30 and the “ability … 14-mer binding site” value (E. coli RNase H) was “able to form RNase H substrates”.

For “TGACTTAGCTGCAT [14-Me^5b-3] (chemistry not given here)”, the “3′-exonucleolytic cleavage” value (B95-8 cells) was “absence of cleavage”, the “Tissue Culture Stabilities, Relative Half-Life, +FCS. B95-8” value (B95-8 cells) was 30 and the “ability … 14-mer binding site” value (E. coli RNase H) was “able to form RNase H substrates”.

For TGACTTAGCTGCAT [14-C-3], the activity (relative half-life) ([2]; 3' methylphosphonate linkage at C4,C9,C12, >>200) was > 200.

ATGCAGCTAAGTCA [14-C-4] was tested, and the activity (relative half-life) ([2]; 3' methylphosphonate linkage at C4,C7,C13, all modified oligos tested more than 200 times as resistant, apparently shortened) was > 200.

“TGACTTAGCTGCAT (chemistry not given here) [Oligomer 14-P-3]” was tested, and the “Tissue Culture Stabilities, Relative Half-Life, +FCS. B95-8” value (B95-8 cells) was 1, the “half-life for digestion by DNase II” value (Bovine spleen DNase II; bovine) was 10 h and the “Endonuclease Relative Half-Life, DNase II” value (Bovine spleen DNase II; pH 4.6) was 1.

In the case of “TGACTTAGCTGCAT [14-Me^6a-3] (chemistry not given here)”, the “3′-exonucleolytic cleavage” value (B95-8 cells) is reported as “single stepwise cleavage”, the “Tissue Culture Stabilities, Relative Half-Life, +FCS. B95-8” value (B95-8 cells) is reported as 30 and the “ability … 14-mer binding site” value (E. coli RNase H) is reported as “did not”.

In the case of TGACTTAGCTGCAT [14-A-3], the activity (relative half-life) ([2]; 3' methylphosphonate linkage at A3,A7,A13, >>200) is reported as > 200.

In the case of TGACTTAGCTGCAT (ssDNA, 3' methylphosphonate linkage at C4,C9,C12) [14-C-3], the activity (DNase I (pancreas)) is reported as 6 relative half-life, the activity [5] is reported as > 500 relative half-life and the activity (DNase II (spleen)) is reported as 2 relative half-life.

ATGCAGCTAAGTCA (ssDNA, 3' methylphosphonate linkage at T2,T8,T12) [14-T-4] was tested, and the activity [5] was > 500 relative half-life.

In the case of TGACTTAGCTGCAT (ssDNA, 3' methylphosphonate linkage at positions 2,4,6,8,13) [14-Me5b-3], the activity (DNase I (pancreas)) is reported as 12 relative half-life and the activity (DNase II (spleen)) is reported as > 5 relative half-life.

TGACTTAGCTGCAT (ssDNA, 3' methylphosphonate linkage at positions 2,4,6,10,12) [14-Me5a-3] was tested, and the activity (DNase I (pancreas)) was 300 relative half-life and the activity (DNase II (spleen)) was > 5 relative half-life.

TGACTTAGCTGCAT (ssDNA, 3' methylphosphonate linkage at A3,A7,A13) [14-A-3] was tested, and the activity (DNase II (spleen)) was > 5 relative half-life.

With TGACTTAGCTGCAT (ssDNA, 3' methylphosphonate linkage at positions 2,4,6,8,10,12) [14-Me6a-3] the activity (DNase I (pancreas)) was > 600 relative half-life and the activity (DNase II (spleen)) was > 5 relative half-life.

Molecule ATGCAGCTAAGTCA (ssDNA, 3' methylphosphonate linkage at G3,G6,G11) [14-G-4] has an activity [5] of 100 relative half-life.

In the case of ATGCAGCTAAGTCA (ssDNA, 3' methylphosphonate linkage at T12,C13) [14-C/T-4], the activity [6] is reported as ~2 half-life relative to 14-C-4.

In the case of TGACTTAGCTGCAT (ssDNA, 3' methylphosphonate linkage at positions 2,4,6,9,11,13) [14-Me6b-3], the activity (DNase I (pancreas)) is reported as > 600 relative half-life and the activity (DNase II (spleen)) is reported as > 5 relative half-life.
